Results: US20240299387A1, “HETEROCYCLIC EGFR INHIBITORS FOR USE IN THE TREATMENT OF CANCER” (Blueprint Medicines Corporation, priority 2021, published 2024)
Read-outs that look alike come from different tables or passages of the source.

Key:
[1] = target: T1, EGFR L858R T790M in NCI-H1975 cell line (Homo sapiens, UniProt P00533, L858R/T790M); assay: NCI-H1975 pEGFR AlphaLISA assay; assay type: cell-based; conditions: NCI-H1975 cells (EGFR L858R T790M), p-EGFR (Tyr1068), 4-5 hours incubation; read-out: Ext pEGFR H1975 GMean IC50 (nM) Protocol: @Pharmaron AlphaLISA (Num)
T1 construct: host or cells: NCI-H1975
How it was run: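 Phospho-EGFR measured by AlphaLISA after overnight donor-bead incubation; IC50 from percent pEGFR inhibition versus log concentration.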

[2] = target: T2, EGFR (L858R T790M C797S) (Homo sapiens, UniProt P00533, C797S/L858R/T790M); assay: Biochemical EGFR inhibition assay (Caliper mobility shift), EGFR LRTMCS mutant
T2 construct: purchased SignalChem E10-122VG
How it was run: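 Each enzyme was allowed to phosphorylate 10–20% of its peptide at 25° C. before EDTA (35 mM) quench. Separated substrate and product peaks were measured by mobility shift, giving apparent IC50 values.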

[3] = LRTMCS (PH) IC50 (nM) @ 1 mM ATP (Num)

T1 sequence (P00533 25-1210 T790M/L858R): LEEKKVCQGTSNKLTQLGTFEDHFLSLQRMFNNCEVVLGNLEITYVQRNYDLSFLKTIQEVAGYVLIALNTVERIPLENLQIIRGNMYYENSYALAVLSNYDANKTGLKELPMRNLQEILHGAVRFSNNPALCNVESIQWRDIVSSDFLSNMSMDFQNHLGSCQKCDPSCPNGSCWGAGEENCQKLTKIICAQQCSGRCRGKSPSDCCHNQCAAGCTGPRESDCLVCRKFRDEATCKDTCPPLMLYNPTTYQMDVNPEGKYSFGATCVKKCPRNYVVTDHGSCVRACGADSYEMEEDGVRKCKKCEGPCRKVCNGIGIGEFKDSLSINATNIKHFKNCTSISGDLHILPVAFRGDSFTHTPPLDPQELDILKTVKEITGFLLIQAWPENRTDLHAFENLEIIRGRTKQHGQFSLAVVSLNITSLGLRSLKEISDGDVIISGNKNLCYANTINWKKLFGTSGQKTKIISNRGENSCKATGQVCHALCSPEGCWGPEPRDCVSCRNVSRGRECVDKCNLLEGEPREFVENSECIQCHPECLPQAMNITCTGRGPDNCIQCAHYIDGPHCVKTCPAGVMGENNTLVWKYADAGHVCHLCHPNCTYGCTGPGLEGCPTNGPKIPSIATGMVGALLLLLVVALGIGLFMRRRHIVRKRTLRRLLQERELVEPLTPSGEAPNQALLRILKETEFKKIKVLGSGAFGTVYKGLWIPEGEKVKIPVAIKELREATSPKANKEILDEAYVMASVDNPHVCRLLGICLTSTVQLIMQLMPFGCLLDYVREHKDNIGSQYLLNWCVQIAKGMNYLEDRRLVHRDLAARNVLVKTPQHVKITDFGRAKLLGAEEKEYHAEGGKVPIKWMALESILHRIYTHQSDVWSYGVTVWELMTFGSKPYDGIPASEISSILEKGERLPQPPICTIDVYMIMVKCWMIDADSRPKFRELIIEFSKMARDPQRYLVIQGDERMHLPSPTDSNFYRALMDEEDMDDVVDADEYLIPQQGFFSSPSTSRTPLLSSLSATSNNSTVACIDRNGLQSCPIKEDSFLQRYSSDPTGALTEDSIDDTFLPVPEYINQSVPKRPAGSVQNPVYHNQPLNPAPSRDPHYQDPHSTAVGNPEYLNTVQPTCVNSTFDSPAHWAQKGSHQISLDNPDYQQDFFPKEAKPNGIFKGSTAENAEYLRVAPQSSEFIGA
T2 sequence (P00533 25-1210 T790M/C797S/L858R): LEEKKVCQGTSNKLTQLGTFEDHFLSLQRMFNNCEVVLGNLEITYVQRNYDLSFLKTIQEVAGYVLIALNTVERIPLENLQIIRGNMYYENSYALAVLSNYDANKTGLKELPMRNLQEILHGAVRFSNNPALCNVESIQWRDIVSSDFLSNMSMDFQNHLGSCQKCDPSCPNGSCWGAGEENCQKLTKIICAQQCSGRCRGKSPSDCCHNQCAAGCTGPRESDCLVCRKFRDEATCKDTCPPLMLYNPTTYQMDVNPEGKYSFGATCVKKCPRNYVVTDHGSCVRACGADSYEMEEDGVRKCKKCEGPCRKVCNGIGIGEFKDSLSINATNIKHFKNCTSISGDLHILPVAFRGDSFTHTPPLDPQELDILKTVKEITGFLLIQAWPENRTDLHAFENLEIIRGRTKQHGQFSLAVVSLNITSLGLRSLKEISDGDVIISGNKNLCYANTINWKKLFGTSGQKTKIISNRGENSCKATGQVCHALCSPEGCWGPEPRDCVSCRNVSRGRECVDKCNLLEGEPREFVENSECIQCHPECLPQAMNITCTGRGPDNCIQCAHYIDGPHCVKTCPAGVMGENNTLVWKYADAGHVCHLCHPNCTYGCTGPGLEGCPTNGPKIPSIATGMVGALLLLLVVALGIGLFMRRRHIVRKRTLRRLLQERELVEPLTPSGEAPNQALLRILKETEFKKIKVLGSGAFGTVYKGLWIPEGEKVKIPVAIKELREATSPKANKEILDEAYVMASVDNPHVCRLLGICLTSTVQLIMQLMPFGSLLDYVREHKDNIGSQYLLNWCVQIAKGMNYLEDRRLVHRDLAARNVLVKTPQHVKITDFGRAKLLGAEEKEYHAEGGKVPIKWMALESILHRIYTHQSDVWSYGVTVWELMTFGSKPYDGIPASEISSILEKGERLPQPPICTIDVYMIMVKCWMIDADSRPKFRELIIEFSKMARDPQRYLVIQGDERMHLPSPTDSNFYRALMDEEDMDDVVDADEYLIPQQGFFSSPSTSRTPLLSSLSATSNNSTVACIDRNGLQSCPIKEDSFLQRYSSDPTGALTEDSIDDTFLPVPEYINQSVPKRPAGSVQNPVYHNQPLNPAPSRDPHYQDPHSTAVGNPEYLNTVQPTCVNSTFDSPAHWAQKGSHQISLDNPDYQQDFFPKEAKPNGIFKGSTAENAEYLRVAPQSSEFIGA

Row | SMILES | IC50 [1] [nM] | IC50 [2, 3] [nM] | IC50 ([2]; read-out: LRTMCS (PH) IC50 (nM) @ 1 mM ATP (Num)) [nM]
1 | CC(C)c1ccc(OC[C@@H](C)n2cnnc2)c2cnc(Nc3ccnc(N4CC[C@](C)(O)[C@H](F)C4)n3)cc12 [Example 37, (3R,4S)-1-(4-((8-((R)-2-(4H-1,2,4-triazol-4-yl)propoxy)-5-isopropylisoquinolin-3-yl)amino)pyrimidin-2-yl)-3-fluoro-4-methylpiperidin-4-ol] | 30 to 50 | 15 to 20 | 
2 | Cc1nccn1CCOc1ccc(C(C)C)c2cc(Nc3ccnc(N4CC[C@@](C)(O)[C@@H](F)C4)n3)ncc12 [Example 13, (3S,4R)-3-fluoro-1-(4-((5-isopropyl-8-(2-(2-methyl-1H-imidazol-1-yl)ethoxy)isoquinolin-3-yl)amino)pyrimidin-2-yl)-4-methylpiperidin-4-ol] | 30 to 50 | < 15 | 
3 | CC(=O)N1CC(COc2ccc(C(C)C)c3cc(Nc4ccnc(N5CC[C@](C)(O)[C@H](F)C5)n4)ncc23)C1 [Example 26, 1-(3-(((3-((2-((3R,4S)-3-fluoro-4-hydroxy-4-methylpiperidin-1-yl)pyrimidin-4-yl)amino)-5-isopropylisoquinolin-8-yl)oxy)methyl)azetidin-1-yl)ethan-1-one] | > 50 | 15 to 20 | 
4 | CC(C)c1ccc(OCCn2ccnc2)c2cnc(Nc3ccnc(N4CCC(C)(O)CC4)n3)cc12 [Example 17, 1-(4-((8-(2-(1H-imidazol-1-yl)ethoxy)-5-isopropylisoquinolin-3-yl)amino)pyrimidin-2-yl)-4-methylpiperidin-4-ol] | > 50 | < 15 | 
5 | CC(C)c1ccc(OCc2cnn(C)c2)c2cnc(Nc3ccnc(N4CC[C@@H](O)[C@@](C)(F)C4)n3)cc12 [Example 9, (3S,4R)-3-fluoro-1-(4-((5-isopropyl-8-((1-methyl-1H-pyrazol-4-yl)methoxy)isoquinolin-3-yl)amino)pyrimidin-2-yl)-3-methylpiperidin-4-ol] | > 50 | < 15 | 
6 | CC(C)c1ccc(OCCc2cnnn2C)c2cnc(Nc3ccnc(N4CC[C@](C)(O)[C@H](F)C4)n3)cc12 [Example 35, (3R,4S)-3-fluoro-1-(4-((5-isopropyl-8-(2-(1-methyl-1H-1,2,3-triazol-5-yl)ethoxy)isoquinolin-3-yl)amino)pyrimidin-2-yl)-4-methylpiperidin-4-ol] | 30 to 50 | 15 to 20 | 
7 | CC(=O)N1CC(COc2ccc(C(C)C)c3cc(Nc4ccnc(N5CCC(C)(O)CC5)n4)ncc23)C1 [Example 14, 1-(3-(((3-((2-(4-hydroxy-4-methylpiperidin-1-yl)pyrimidin-4-yl)amino)-5-isopropylisoquinolin-8-yl)oxy)methyl)azetidin-1-yl)ethanone] | > 50 | 20 to 30 | 
8 | CO[C@@H]1CCN(c2nccc(Nc3cc4c(C(C)C)cnc(NCCN(C)C)c4cn3)n2)C[C@@H]1F [Example 3, N^1-(2-(dimethylamino)ethyl)-N^6-(2-((3S,4R)-3-fluoro-4-methoxypiperidin-1-yl)pyrimidin-4-yl)-4-isopropyl-2,7-naphthyridine-1,6-diamine] | > 50 | 15 to 20 | 

Other lines, results leading:

Row | IC50 [1] [nM] | IC50 [2, 3] [nM] | IC50 ([2]; read-out: LRTMCS (PH) IC50 (nM) @ 1 mM ATP (Num)) [nM] | SMILES
9 | > 50 | 30 to 100 |  | CC(C)c1cnc(N(C)C)c2cnc(Nc3ccnc(N4CC[C@@H](O)[C@@H](F)C4)n3)cc12 [Example 94, (3S,4R)-1-(4-((8-(dimethylamino)-5-isopropyl-2,7-naphthyridin-3-yl)amino)pyrimidin-2-yl)-3-fluoropiperidin-4-ol]
10 | 30 to 50 | 15 to 20 |  | CC(C)c1cnc(C(=O)NC2CCOCC2)c2cnc(Nc3ccnc(N4CC[C@@H](O)[C@@](C)(F)C4)n3)cc12 [Example 78, 6-((2-((3S,4R)-3-fluoro-4-hydroxy-3-methylpiperidin-1-yl)pyrimidin-4-yl)amino)-4-isopropyl-N-(tetrahydro-2H-pyran-4-yl)-2,7-naphthyridine-1-carboxamide]
11 | > 50 | 15 to 20 |  | CC(C)c1cnc(C(=O)N[C@@H](C)CF)c2cnc(Nc3ccnc(N4CC[C@@H](O)[C@@](C)(F)C4)n3)cc12 [Example 72, 6-((2-((3S,4R)-3-fluoro-4-hydroxy-3-methylpiperidin-1-yl)pyrimidin-4-yl)amino)-N-((S)-1-fluoropropan-2-yl)-4-isopropyl-2,7-naphthyridine-1-carboxamide]
12 | 20 to 30 | < 15 |  | CC(C)c1cnc(C(=O)N[C@H]2C[C@@H](C#N)C2)c2cnc(Nc3ccnc(N4CC[C@@H](O)[C@@](C)(F)C4)n3)cc12 [Example 81, N-((1r,3r)-3-cyanocyclobutyl)-6-((2-((3S,4R)-3-fluoro-4-hydroxy-3-methylpiperidin-1-yl)pyrimidin-4-yl)amino)-4-isopropyl-2,7-naphthyridine-1-carboxamide]
13 | 10 to 20 |  | < 15 | CC(C)c1cnc(C(=O)N[C@H]2CN(C)C[C@H]2F)c2cnc(Nc3ccnc(N4CC[C@@H](O)[C@@](C)(F)C4)n3)cc12 (single isomer, unassigned) [Example 88]
14 | > 50 | 15 to 20 |  | Cc1noc(C)c1CCOc1ccc(C(C)C)c2cc(Nc3ccnc(N4CC[C@@H](OCCO)[C@@H](F)C4)n3)ncc12 [Example 43, 2-(((3S,4R)-1-(4-((8-(2-(3,5-dimethylisoxazol-4-yl)ethoxy)-5-isopropylisoquinolin-3-yl)amino)pyrimidin-2-yl)-3-fluoropiperidin-4-yl)oxy)ethan-1-ol]
15 | > 50 | 15 to 20 |  | [2H]C([2H])([2H])O[C@H]1CCN(c2nccc(Nc3cc4c(C(C)C)ccc(OCCn5ccnc5)c4cn3)n2)C[C@H]1F [Example 48, 8-(2-(1H-imidazol-1-yl)ethoxy)-N-(2-((3R,4S)-3-fluoro-4-(methoxy-d3)piperidin-1-yl)pyrimidin-4-yl)-5-isopropylisoquinolin-3-amine]
16 | 30 to 50 | < 15 |  | CC(C)c1cnc(C(=O)NC2CC(F)(F)C2)c2cnc(Nc3ccnc(N4CC[C@@H](O)[C@@](C)(F)C4)n3)cc12 [Example 75, N-(3,3-difluorocyclobutyl)-6-((2-((3S,4R)-3-fluoro-4-hydroxy-3-methylpiperidin-1-yl)pyrimidin-4-yl)amino)-4-isopropyl-2,7-naphthyridine-1-carboxamide]
17 | > 50 | 15 to 20 |  | CO[C@H]1CCN(c2nccc(Nc3cc4c(C(C)C)ccc(OCC5CN(C(C)=O)C5)c4cn3)n2)C[C@@H]1O (single isomer, unassigned) [Example 57, 1-(3-(((3-((2-((3S,4S)-3-hydroxy-4-methoxypiperidin-1-yl)pyrimidin-4-yl)amino)-5-isopropylisoquinolin-8-yl)oxy)methyl)azetidin-1-yl)ethan-1-one or 1-(3-(((3-((2-((3R,4R)-3-hydroxy-4-methoxypiperidin-1-yl)pyrimidin-4-yl)amino)-5-isopropylisoquinolin-8-yl)oxy)methyl)azetidin-1-yl)ethan-1-one]
18 | > 50 | 15 to 20 |  | CC(C)c1cnc(C(=O)N[C@H]2CC2(F)F)c2cnc(Nc3ccnc(N4CC[C@@H](O)[C@@](C)(F)C4)n3)cc12 (single isomer, unassigned) [Example 63, N—((S)-2,2-difluorocyclopropyl)-6-((2-((3S,4R)-3-fluoro-4-hydroxy-3-methylpiperidin-1-yl)pyrimidin-4-yl)amino)-4-isopropyl-2,7-naphthyridine-1-carboxamide or N—((R)-2,2-difluorocyclopropyl)-6-((2-((3S,4R)-3-fluoro-4-hydroxy-3-methylpiperidin-1-yl)pyrimidin-4-yl)amino)-4-isopropyl-2,7-naphthyridine-1-carboxamide]
